From patent publication US10316039B2, “P2X3 and/or P2X2/3 compounds and methods” (Asana Biosciences, LLC, priority 2013, dated 2019)

Tests used:
P2X3 = target: T1, P2X3 (UniProt P56373); test: P2X3 FLIPR intracellular calcium assay; assay type: cell-based; settings: agonist at EC75, species (human or rat) not given
T1 sequence (P56373 1-397): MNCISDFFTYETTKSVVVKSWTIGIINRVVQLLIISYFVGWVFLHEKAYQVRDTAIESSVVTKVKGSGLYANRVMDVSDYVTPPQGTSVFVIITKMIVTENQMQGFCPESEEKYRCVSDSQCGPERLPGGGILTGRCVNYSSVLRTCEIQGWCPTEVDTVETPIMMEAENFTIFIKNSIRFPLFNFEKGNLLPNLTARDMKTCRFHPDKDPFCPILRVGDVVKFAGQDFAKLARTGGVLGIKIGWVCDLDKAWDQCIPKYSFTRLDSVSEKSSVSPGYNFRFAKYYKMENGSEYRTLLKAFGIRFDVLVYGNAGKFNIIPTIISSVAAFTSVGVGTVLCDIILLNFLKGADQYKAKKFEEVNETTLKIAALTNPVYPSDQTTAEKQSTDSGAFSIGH
Text: The FLIPR® assay utilizes cells which express human or rat P2X3 or P2X2/3 receptors. […] The PCR product obtained containing the protein coding sequence of rat P2X2 was cloned into EcoRV-digested and dephosphorylated vector pIRES-puro3 within the multiple cloning site (MCS). See, FIG. 1A.
Rat P2X3 (NCBI Accession No: X91167) was amplified by PCR from rat brain cDNA. The PCR product obtained containing the protein coding sequence of rat P2X3 was cloned into EcoRV-digested and dephosphorylated vector pCDNA-Hygro within the multiple cloning site (MCS) (FIG. 1B). Rat P2X3 cloned into pcDNA-Hygro was then subcloned into pcDNA-5/TO at HindIII (5′) and XhoI (3′) sites within the multiple cloning site (MCS) of the vector (FIG. 1C).
(§1) Transfection was carried out using super-coiled constructs (purified using QIAGEN kit) in antibiotic free, serum free DMEM using Lipofectamine® 2000 (Invitrogen) transfection agent. The DNA constructs rat P2X2 in pIRES-Puro3 and rat P2X3 in pCDNA5/TO were co-transfected into TRex293 cells in order to generate the rP2X2/3 stable line. 50 μg/mL hygromycin (Invitrogen) and 0.5 μg/mL puromycin (Fermentek) were used for selection of stable clones of rP2X2/3. Rat P2X3 in pCDNA5/TO DNA construct was transfected to CHO-TRex cells to generate the rP2×3 stable line and 500 μg/mL hygromycin (Invitrogen) was used as selection antibiotic. Transfected stable colonies were then functionally verified and robust clones suitable for assay were clonally purified through dilutions.
(§2) Cryo-vial containing 6×10^6 cells (human P2X3-HEK/human P2X2/3-TRex293/rat P2X2/3-TRex293/rat P2X3 TRex-CHO) was thawed in a 37° C. water bath. Cells were suspended in 20 mL of respective cell plating media (See annexure for composition) in a 50 mL centrifuge tube. The cell viability was checked with the help of Trypan Blue dye. Upon washing, cells were plated in a black 384-well clear bottomed, sterile poly-D-lysine coated plate such that, each well contained 10,000 cells (15,000/well for hP2X3) in 30 μL cell plating media. The plate was incubated in a 5% CO2 incubator at 37° C. for 24 h.
(§3) The next day, prior to the assay, the cell plating media was removed from each well by decanting and gentle tapping. Thirty μL of FLIPR Calcium 4 dye solution was added to each well. The plate was incubated at 37° C. for 45 min (60 min for hP2X3). The plate was next equilibrated at room temperature for 15 minutes before placing it in a 384 well FLIPR for the assay.
Dilutions were mixed with assay buffer just before performing the assay.
(§4) Compounds were added to the respective wells of the assay-ready cell plate with the help of the FLIPR and fluorescence readings were captured for 5 min to observe any possible agonistic property of the compounds. The plate was then incubated at room temperature for 15 min. The cells were stimulated with respective agonist EC75 concentration and the fluorescence readings were captured for another 5 min by FLIPR. The difference in fluorescence readings in presence of the compounds were compared with that of the control wells (wells having no compound) to calculate the inhibitory potency of the compounds. The IC50 values of the compounds were determined using the Graph pad Prism software.
(vi) Dye Solution Composition • 1×FLIPR Calcium 4 dye in assay buffer (Molecular devices Cat# R8141) • 1.8 mM Probenecid (Sigma Cat# P8761) • pH adjusted to 7.4

P2X2/3 = target: T2, P2X2/3 (Homo sapiens, UniProt P56373+Q9UBL9); test: P2X2/3 FLIPR intracellular calcium assay; assay type: cell-based; settings: agonist at EC75, species (human or rat) not given
T2 sequence (Q9UBL9 1-471): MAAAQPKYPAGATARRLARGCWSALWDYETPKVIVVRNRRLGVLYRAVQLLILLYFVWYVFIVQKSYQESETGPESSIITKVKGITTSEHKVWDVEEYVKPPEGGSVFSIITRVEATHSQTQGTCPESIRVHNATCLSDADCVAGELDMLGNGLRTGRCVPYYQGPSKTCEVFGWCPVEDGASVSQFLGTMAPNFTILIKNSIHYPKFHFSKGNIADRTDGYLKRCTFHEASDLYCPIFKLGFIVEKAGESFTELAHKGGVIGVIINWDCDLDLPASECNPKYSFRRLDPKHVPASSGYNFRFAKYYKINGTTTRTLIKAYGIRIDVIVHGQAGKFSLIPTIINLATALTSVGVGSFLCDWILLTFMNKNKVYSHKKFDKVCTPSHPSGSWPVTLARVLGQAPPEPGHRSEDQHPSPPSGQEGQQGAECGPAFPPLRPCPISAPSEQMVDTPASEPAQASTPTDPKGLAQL
T2 sequence (P56373 1-397): T1 sequence (P56373 1-397)
Text: The FLIPR® assay utilizes cells which express human or rat P2X3 or P2X2/3 receptors. Recombinant cells expressing hP2X3 (Cat#6188) and hP2X2/3 (Cat#6179) were procured from Chantest Corp. Rat P2X2 (NCBI Accession No: U14414) was amplified by PCR from PC12 cDNA (a rat adrenal medulla cell line). The PCR product obtained containing the protein coding sequence of rat P2X2 was cloned into EcoRV-digested and dephosphorylated vector pIRES-puro3 within the multiple cloning site (MCS). See, FIG. 1A.
as §1, §2, §3
Compounds were dissolved in DMSO and serially diluted following 11 point half log (3.16 fold) dilution with a starting concentration of 2 mM. Dilutions were mixed with assay buffer just before performing the assay.
as §4
(ii) Cell Plating Media for hP2X3-HEK and hP2X2/3-TRex293 Cells • DMEM/F12 (1:1) HAM media (Invitrogen; Cat#11039) • 1×NEAA (Invitrogen; Cat#11140) • 25 mM HEPES (Invitrogen; Cat#15630) • 1 mM sodium pyruvate (Invitrogen; Cat#11360) • 10% tetracycline negative FBS (PAA; Cat# A15-209) • 1 μg/mL doxycycline (Clontech; Cat#63131) [for hP2X2/3-TRex293 cells only]
(iii) Cell Plating Media for rP2X2/3-TRex293 Cells • DMEM media (Invitrogen; Cat#11965) • 25 mM HEPES (Invitrogen; Cat#15630) • 10% tetracycline negative FBS (PAA; Cat# A15-209) • 1 μg/mL Doxycycline (Clontech; Cat#63131)
(v) Assay Buffer Composition • HBSS (Invitrogen Cat#14025) • 20 mM HEPES (Invitrogen Cat#15630) • 0.01% F127 (Sigma Cat# P2443) • 1.8 mM CaCl2 (Sigma Cat# C5080) • pH adjusted to 7.4 […]

SMILES | IC50 (P2X3) [nM] | IC50 (P2X2/3) [nM]
Cc1ccc(CNC(=O)c2cc(-n3nnnc3CC3CC3)c3ncc(-c4ccc(C)s4)n3c2)cn1 [Example 156] | > 10000 | 1 to 100
Cc1ccc(-c2cnc3c(-n4nncc4C(F)F)cc(C(=O)N[C@H](c4nnc[nH]4)C(C)C)cn23)s1 [Example 54] | 1 to 100 | 1 to 100
Cc1ccc(-c2cnc3c(N4CCC(F)(F)CC4)cc(C(=O)N[C@@H](C)c4nnc[nH]4)cn23)s1 [Example 130] | 1 to 100 | 1 to 100
CCc1nnnn1-c1cc(C(=O)NCc2ccc(C)nc2)cn2c(-c3ccc(C)s3)cnc12 [Example 153] | > 10000 | 1 to 100
Cc1ccc(CNC(=O)c2cc(-n3nncc3C(F)F)c3ncc(-c4nnc(C)s4)n3c2)cn1 [Example 5, 8-(5-(Difluoromethyl)-1H-1,2,3-triazol-1-yl)-3-(5-methyl-1,3,4-thiadiazol-2-yl)-N-((6-methylpyridin-3-yl)methyl)imidazo[1,2-a]pyridine-6-carboxamide] | 100 to 1000 | 100 to 1000
Cc1ccc(-c2cnc3c(N4CCC(CF)CC4)cc(C(=O)N[C@@H](C)c4nnc[nH]4)cn23)s1 [Example 133] | 1 to 100 | 100 to 1000
Cc1cnc(CNC(=O)c2cc(-n3nnnc3C3CCC3)c3ncc(-c4ccc(C)s4)n3c2)cn1 [Example 164] | > 10000 | 1 to 100
CCc1nnnn1-c1cc(C(=O)N[C@@H](C)c2nnc[nH]2)cn2c(-c3ccc(C)s3)cnc12 [Example 178] | 1 to 100 | 100 to 1000
Cc1ccc(CNC(=O)c2cc(-n3nnnc3C3CC3)c3ncc(-c4ccc(C)s4)n3c2)cn1 [Example 16, 8-(5-Cyclopropyl-1H-tetrazol-1-yl)-N-((6-methylpyridin-3-yl)methyl)-3-(5-methylthiophen-2-yl)imidazo[1,2-a]pyridine-6-carboxamide] | > 10000 | 100 to 1000
C[C@H](NC(=O)c1cc(-n2nncc2C(F)F)c2ncc(-c3ccc(C#N)s3)n2c1)c1nnc[nH]1 [Example 51] | 100 to 1000 | 1000 to 10000
Cc1ccc(-c2cnc3c(-c4cnn(C)c4)cc(C(=O)N[C@@H](C)c4nnc[nH]4)cn23)s1 [Example 8, (S)—N-(1-(4H-1,2,4-Triazol-3-yl)ethyl)-8-(1-methyl-1H-pyrazol-4-yl)-3-(5-methylthiophen-2-yl)imidazo[1,2-a]pyridine-6-carboxamide] | 1 to 100 | 100 to 1000
Cc1ccc(-c2cnc3c(-c4ccnn4C)cc(C(=O)N[C@@H](C)c4nnc[nH]4)cn23)s1 [Example 100] | 1 to 100 | 100 to 1000
Cc1ncc([C@@H](C)NC(=O)c2cc(-n3nncc3C(F)F)c3ncc(-c4ncc(C)s4)n3c2)cn1 [Example 84] | 1 to 100 | 1 to 100

Continued, values first:

IC50 (P2X3) [nM] | IC50 (P2X2/3) [nM] | SMILES
1 to 100 | 1 to 100 | Cc1ccc(-c2cnc3c(-n4nncc4C(F)(F)F)cc(C(=O)N[C@@H](C)c4nnc[nH]4)cn23)s1 [Example 26]
1 to 100 | 100 to 1000 | CCc1cnnn1-c1cc(C(=O)N[C@@H](C)c2nnc[nH]2)cn2c(-c3ccc(C)o3)cnc12 [Example 62]
> 10000 | 100 to 1000 | Cc1ccc(-c2cnc3c(-n4nnnc4C4CCC4)cc(C(=O)NC(C)c4cnccn4)cn23)s1 (stereo not drawn) [Example 160]
1 to 100 | 1 to 100 | Cc1ccc(CNC(=O)c2cc(-n3nncc3C)c3ncc(-c4ccc(C)s4)n3c2)cn1 [Example 28]
1 to 100 | 1 to 100 | Cc1ncc(CNC(=O)c2cc(-n3nncc3C(F)F)c3ncc(-c4ccc(C)o4)n3c2)cn1 [Example 65]
1 to 100 | 1 to 100 | COc1ncc(CNC(=O)c2cc(-n3nncc3C(F)(F)F)c3ncc(-c4ccc(C)s4)n3c2)cn1 [Example 44]
1 to 100 | 100 to 1000 | Cc1cnc(-c2cnc3c(-c4c(C)noc4C)cc(C(=O)N[C@@H](C)c4nnc[nH]4)cn23)s1 [Example 109]
1 to 100 | 1 to 100 | Cc1ncc(CNC(=O)c2cc(-n3nncc3C3CC3)c3ncc(-c4ccc(C)s4)n3c2)cn1 [Example 41]
> 10000 | 1 to 100 | Cc1ccc(CNC(=O)c2cc(-n3nncc3C(C)C)c3ncc(-c4ccc(C)s4)n3c2)cn1 [Example 45]
1 to 100 | 1 to 100 | C[C@H](NC(=O)c1cc(-n2nnnc2C(C)(F)F)c2ncc(-c3ccc(Cl)s3)n2c1)c1nnc[nH]1 [Example 184]
1 to 100 | 1 to 100 | Cc1ccc(CNC(=O)c2cc(N3CCC(C)(C(N)=O)CC3)c3ncc(-c4ccc(C)s4)n3c2)cn1 [Example 148]
100 to 1000 | 100 to 1000 | Cc1ncc(CNC(=O)c2cc(-n3nncc3C(F)F)c3ncc(-c4cnc(C)s4)n3c2)cn1 [Example 66]
> 10000 | 1 to 100 | Cc1ccc(-c2cnc3c(-n4nnnc4C4CCC4)cc(C(=O)NCc4ccn(C)c(=O)c4)cn23)s1 [Example 161]
100 to 1000 | 1000 to 10000 | Cc1ccc(-c2cnc3c(Nc4nccs4)cc(C(=O)NCc4ccn(C)c(=O)c4)cn23)s1 [Example 93]
